In patent US4956294A, “Culture of Streptoverticillium synroense for producing an antibacterial” (Merck & Co., Inc., priority 1989, dated 1990):
≈ marks a conversion by molar mass, not a printed value.

Tests used:
[1] = system: Xanthomonas vesicatoria 815; assay: Inhibition zone, agar plate; format: cell-based; settings: 15λ, read-out: Inhibition Zone Diameter
E. coli TEM 2+ 4351 = assay: Agar dilution, antagonist-free medium; settings: Escherichia coli, 20 h
B. fragilis Pen^r 3214 = assay: Anaerobic agar dilution, Wilkens-Chalgren agar; format: cell-based; settings: Bacteroides fragilis, 48 h
[2] = system: Prot. mirabilis Gm^r 2830; assay: Agar dilution, trypticase soy agar; settings: Proteus mirabilis, 20 h
Proteus vulgaris 1012 = assay: Inhibition zone, agar plate; format: cell-based
[3] = system: Propionibacterium acnes 2249; assay: Anaerobic agar dilution, Wilkens-Chalgren agar; format: cell-based; settings: Cutibacterium acnes, 2249, 48 h
C. difficile Fox^r 4380 = assay: Anaerobic agar dilution, Wilkens-Chalgren agar; format: cell-based; settings: Clostridioides difficile, 48 h
E. coli TEM 2+ DC2 4352 = assay: Agar dilution, trypticase soy agar; settings: Escherichia coli, 20 h

`C[C@H](CNC(=O)[C@H]1N=C(c2cccc(O)c2O)O[C@@H]1C)C(=O)N[C@@H]1CCCN(O)C1=O` [L-654,040, 2-(2,3-dihydroxyphenyl)-4,5-dihydro-N-[3-[(1-hydroxy-2-oxo-3(R)-piperidinyl)-amino]-2(R)-methyl-3-oxopropyl]-5R-methyl-4S-oxazolecarboxamide] gave a zone of inhibition at 500 µg/mL ([1]; 0.5 mg/ml in distilled H2O) of 0 mm, a zone of inhibition at 2000 µg/mL ([1]; 2 mg/ml in distilled H2O) of 0 mm and an MIC (E. coli TEM 2+ 4351) of over 256 µg/mL. For the same molecule, the MIC (B. fragilis Pen^r 3214) was over 128 µg/mL, the MIC [2] was over 128 µg/mL and the zone of inhibition at 500 µg/mL (Proteus vulgaris 1012; Proteus vulgaris, 1012, read-out: Inhibition Zone Diameter) was 24 mm. The zone of inhibition at 2000 µg/mL (Proteus vulgaris 1012; Proteus vulgaris, 1012, 2 mg/ml in distilled H2O, 15λ, read-out: Inhibition Zone Diameter) was 34 mm, the MIC [3] was 128 µg/mL (≈ 295 µM) and the MIC (C. difficile Fox^r 4380) was 128 µg/mL (≈ 295 µM). For the same molecule, the MIC (E. coli TEM 2+ DC2 4352) was 128 µg/mL (≈ 295 µM).
